This note sets out measurements from US20230219979A1, “PYRAZOLO[1,5-a]PYRIDINE COMPOUND, PREPARATION METHOD THEREFOR AND USE THEREOF” (SHENZHEN ZHONGGE BIOLOGICAL TECHNOLOGY CO., LTD., priority 2019, published 2023).

SMILES strings stand for the structures.

One assay concerns the target VEGFR2 kinase (Homo sapiens, UniProt P35968). Briefly: HTRF method for testing the inhibitory activity of compounds against VEGFR2. Type of assay: biochemical.
A further assay concerns the target Wild-type RET kinase (Homo sapiens, UniProt P07949). Briefly: HTRF method for testing the inhibitory activity of compounds against RET. The assay is classed as biochemical. To be noted: HTRF; read-out: Wild-type RET kinase.
Another assay deals with T1, Ba/F3-KIF5B-RET cell (Homo sapiens, UniProt P07949).
T1 construct: fused on or other part: P33176 (Kinesin-1 heavy chain)
T1 sequence (P07949 whole entry, change not shown, the tested form may be a part): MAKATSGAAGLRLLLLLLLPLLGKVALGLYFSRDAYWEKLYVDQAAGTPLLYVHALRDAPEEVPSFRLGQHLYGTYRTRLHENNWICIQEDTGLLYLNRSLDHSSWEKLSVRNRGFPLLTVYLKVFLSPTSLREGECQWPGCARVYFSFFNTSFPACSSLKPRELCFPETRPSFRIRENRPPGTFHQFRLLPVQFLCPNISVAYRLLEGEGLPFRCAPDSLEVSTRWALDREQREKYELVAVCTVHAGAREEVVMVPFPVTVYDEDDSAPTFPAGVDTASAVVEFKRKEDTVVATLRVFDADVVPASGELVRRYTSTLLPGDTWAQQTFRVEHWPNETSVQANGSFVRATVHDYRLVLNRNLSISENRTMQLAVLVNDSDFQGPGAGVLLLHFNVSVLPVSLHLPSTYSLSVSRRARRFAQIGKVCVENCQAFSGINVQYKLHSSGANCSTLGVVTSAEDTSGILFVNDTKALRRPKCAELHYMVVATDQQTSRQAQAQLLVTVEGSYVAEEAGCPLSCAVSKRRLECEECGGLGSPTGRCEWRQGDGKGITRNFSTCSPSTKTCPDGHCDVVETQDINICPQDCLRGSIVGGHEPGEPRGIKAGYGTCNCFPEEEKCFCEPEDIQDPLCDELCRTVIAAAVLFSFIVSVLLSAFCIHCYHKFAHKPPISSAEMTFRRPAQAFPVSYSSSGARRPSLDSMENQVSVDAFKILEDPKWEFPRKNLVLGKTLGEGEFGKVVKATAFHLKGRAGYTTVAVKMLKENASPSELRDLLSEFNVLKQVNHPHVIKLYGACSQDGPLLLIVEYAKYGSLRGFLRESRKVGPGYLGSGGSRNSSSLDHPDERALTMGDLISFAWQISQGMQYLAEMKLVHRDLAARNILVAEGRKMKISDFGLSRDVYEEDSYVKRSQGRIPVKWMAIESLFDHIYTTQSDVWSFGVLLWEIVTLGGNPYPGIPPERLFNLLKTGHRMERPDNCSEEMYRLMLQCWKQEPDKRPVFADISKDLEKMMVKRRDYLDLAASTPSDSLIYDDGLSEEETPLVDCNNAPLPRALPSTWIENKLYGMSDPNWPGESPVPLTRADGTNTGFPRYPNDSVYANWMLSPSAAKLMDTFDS
As to the kind of experiment: CellTiter-Glo luminescence assay, inhibitory activity against Ba/F3-KIF5B-RET cell. Type of assay: cell-based. To be noted: 72 h, read-out: Ba/F3-KIF5B-RET cell activity. An excerpt: (C) In Vitro Screening Experiment - CellTiter-Glo Luminescence Assay for Testing The inhibitory activity of compounds against Ba/F3-KIF5B-RET cell
• 1. The mammalian cell expression vector containing human KIF5B-RET cDNA was introduced into Ba/F3 cells using the Neon® transfection system method, and the surviving clones screened by puromycin were subjected to cell growth inhibitory function experiments and Western blotting to verify cell lines with stable and high expression of RET. • 2. Cells were cultured in RPMI 1640 medium containing 10% fetal bovine serum, 1% penicillin-streptomycin, and 2 µg/mL puromycin, and then placed in a 37° C., 5% carbon dioxide cell incubator. • 3. The test compound (5 mM stock) was diluted 2.5 folds to […] with 100% dimethyl sulfoxide; and the compound was diluted into 10 concentrations at an equal ratio of 1:3 in a 384-well dilution plate. • 4. 0.2 µL of the serially diluted compound was added to a 384-well cell culture plate (Corning, 3570) using an Echo 550 pipetting system, 2 replicate wells for each concentration, and the final concentration of dimethyl sulfoxide was 0.5% (v/v). The gradient concentrations of the test compound were 5000, 1666.7, 555.5, 185.18, 61.72, 20.57, 6.858, 2.286, 0.764, 0.254 nM. • 5. 40 µL of Ba/F3-KIF5B-RET cell suspension containing 800 cells was added to each well, and incubated for 72 h in a 5% CO2 cell incubator. • 6. 20 µL of Cell Titer-Glo reagent was added to each well of the cell culture plate, and the culture system was then shaken and mixed thoroughly for 2 min to lyse the cells, the cells were then incubated at room temperature for 30 min, and the […] signal values were then read with an Envision 2104 microplate reader. • 7. By fitting the data with XLFit 5.0 based on the parameters formula, the IC50 value was calculated as: • [formula]

Another assay addresses RET G810S kinase (Homo sapiens, UniProt P07949, G810S). Briefly: HTRF method for testing the inhibitory activity against RET G810S. Type of assay: biochemical. To be noted: for IC50: HTRF; for inhibitory activity against G810S (in words): mutant strain of RET kinase.
A further assay addresses RET G810R kinase (Homo sapiens, UniProt P07949, G810R). As to the kind of experiment: HTRF method for testing the inhibitory activity against RET G810R. To be noted: for IC50: HTRF; for inhibitory activity against G810R (in words): mutant strain of RET kinase. The assay is classed as biochemical.

Wild-type RET kinase, sequence (P07949 29-1114): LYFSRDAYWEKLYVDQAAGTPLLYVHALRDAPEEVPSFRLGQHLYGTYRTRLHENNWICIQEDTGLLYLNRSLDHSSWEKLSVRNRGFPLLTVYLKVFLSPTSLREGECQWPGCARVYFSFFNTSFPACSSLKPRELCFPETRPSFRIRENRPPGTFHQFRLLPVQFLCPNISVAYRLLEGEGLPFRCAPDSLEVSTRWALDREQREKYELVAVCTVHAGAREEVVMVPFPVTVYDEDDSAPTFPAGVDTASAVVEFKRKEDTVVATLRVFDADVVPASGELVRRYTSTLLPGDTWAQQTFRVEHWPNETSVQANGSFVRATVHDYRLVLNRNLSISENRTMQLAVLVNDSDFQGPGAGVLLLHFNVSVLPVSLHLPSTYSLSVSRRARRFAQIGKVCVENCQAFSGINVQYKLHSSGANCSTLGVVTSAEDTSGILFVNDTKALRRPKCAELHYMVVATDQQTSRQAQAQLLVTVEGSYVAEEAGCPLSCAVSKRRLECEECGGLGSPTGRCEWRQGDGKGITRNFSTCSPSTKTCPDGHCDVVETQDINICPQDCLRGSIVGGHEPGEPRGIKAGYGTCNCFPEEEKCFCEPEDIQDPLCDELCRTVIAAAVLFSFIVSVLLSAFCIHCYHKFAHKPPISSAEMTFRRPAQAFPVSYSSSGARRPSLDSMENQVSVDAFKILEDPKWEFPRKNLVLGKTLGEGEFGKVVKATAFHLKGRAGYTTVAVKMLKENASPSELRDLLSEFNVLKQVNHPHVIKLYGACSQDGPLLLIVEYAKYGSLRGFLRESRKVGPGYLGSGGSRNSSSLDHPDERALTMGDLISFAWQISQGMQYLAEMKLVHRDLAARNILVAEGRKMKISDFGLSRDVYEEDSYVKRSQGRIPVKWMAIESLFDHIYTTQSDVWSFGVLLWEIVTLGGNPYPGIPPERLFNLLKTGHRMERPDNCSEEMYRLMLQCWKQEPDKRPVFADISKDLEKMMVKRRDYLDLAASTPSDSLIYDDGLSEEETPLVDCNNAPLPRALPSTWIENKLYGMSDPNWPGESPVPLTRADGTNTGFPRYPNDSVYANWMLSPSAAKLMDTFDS
VEGFR2 kinase, sequence (P35968 20-1356): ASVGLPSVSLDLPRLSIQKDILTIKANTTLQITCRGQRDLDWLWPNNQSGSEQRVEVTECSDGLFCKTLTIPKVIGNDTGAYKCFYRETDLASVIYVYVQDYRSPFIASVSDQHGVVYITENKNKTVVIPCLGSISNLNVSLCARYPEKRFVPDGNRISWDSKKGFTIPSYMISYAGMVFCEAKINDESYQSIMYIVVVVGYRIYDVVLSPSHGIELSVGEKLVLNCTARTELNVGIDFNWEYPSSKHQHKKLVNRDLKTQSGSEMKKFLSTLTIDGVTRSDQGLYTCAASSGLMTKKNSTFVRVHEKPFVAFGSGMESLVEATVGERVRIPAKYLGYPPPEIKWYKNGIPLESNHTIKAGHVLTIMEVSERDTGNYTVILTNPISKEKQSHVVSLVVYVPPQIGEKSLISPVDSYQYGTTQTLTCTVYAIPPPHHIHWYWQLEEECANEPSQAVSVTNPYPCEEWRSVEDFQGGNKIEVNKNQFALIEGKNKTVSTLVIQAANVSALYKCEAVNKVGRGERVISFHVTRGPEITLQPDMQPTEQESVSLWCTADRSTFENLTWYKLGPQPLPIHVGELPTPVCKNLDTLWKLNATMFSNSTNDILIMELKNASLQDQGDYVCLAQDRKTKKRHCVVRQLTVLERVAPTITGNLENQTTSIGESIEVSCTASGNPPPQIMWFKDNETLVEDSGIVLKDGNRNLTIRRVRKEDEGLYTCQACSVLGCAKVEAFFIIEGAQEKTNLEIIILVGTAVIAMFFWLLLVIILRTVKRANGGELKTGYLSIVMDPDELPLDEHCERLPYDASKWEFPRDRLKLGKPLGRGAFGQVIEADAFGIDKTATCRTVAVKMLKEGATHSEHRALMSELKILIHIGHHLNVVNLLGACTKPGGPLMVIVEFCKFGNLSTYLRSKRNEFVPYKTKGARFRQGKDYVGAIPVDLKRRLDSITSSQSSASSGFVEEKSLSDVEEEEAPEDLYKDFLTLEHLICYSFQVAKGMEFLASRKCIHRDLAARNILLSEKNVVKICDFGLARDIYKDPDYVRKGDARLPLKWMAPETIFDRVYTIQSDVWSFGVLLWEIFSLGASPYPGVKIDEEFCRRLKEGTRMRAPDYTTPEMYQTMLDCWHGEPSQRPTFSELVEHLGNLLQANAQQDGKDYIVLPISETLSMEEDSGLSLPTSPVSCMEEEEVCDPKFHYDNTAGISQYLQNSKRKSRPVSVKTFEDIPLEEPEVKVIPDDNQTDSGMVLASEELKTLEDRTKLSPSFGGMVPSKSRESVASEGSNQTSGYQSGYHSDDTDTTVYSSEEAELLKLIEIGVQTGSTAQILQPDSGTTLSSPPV
RET G810R kinase, sequence (P07949 29-1114 G810R): as the sequence (P07949 29-1114) above, with G782R counted along it
RET G810S kinase, sequence (P07949 29-1114 G810S): as the sequence (P07949 29-1114) above, with G782S counted along it

In the case of `COc1ccc(CN2CCN(c3ccc(-c4cc(-c5cnn(C)c5)cn5ncc(C(N)=O)c45)cn3)CC2)cn1` [Compound 8, 4-(6-(4-((6-methoxypyridin-3-yl)methyl)piperazin-1-yl)pyridin-3-yl)-6-(1-methyl-1H-pyrazol-4-yl)pyrazolo[1,5-a]pyridine-3-carboxamide], the IC50 was at least 5000 nM at VEGFR2 kinase and 250 nM at Wild-type RET kinase.

Regarding `COc1ccc(CN2C3CC2CN(c2cnc(-c4cc(OCCN5CC6(COC6)C5)cn5ncc(C#N)c45)cn2)C3)cn1` [Compound 36, 6-(2-(2-oxa-6-azaspiro[3.3]hept-6-yl)ethoxy)-4-(5-(6-((6-methoxypyridin-3-yl)methyl)-3,6-diazabicyclo[3.1.1]heptan-3-yl)pyrazin-2-yl)pyrazolo[1,5-a]pyridine-3-carbonitrile], the IC50 against VEGFR2 kinase came to 454 nM; on Wild-type RET kinase, 2.44 nM. The GI50 on Ba/F3-KIF5B-RET cell is 32.1 nM.

As for `COc1ccc(CN2C3CC2CN(c2cnc(-c4cc(OCCN5CCC6(CCOCC6)CC5)cn5ncc(C#N)c45)cn2)C3)cn1` [Compound 37, 6-(2-(3-oxa-9-azaspiro[5.5]undec-9-yl)ethoxy)-4-(5-(6-((6-methoxypyridin-3-yl)methyl)-3,6-diazabicyclo[3.1.1]heptan-3-yl)pyrazin-2-yl)pyrazolo[1,5-a]pyridine-3-carbonitrile], the results for the IC50 against VEGFR2 kinase and on Wild-type RET kinase were 801 nM and 5.7 nM, respectively.

`COc1ccc(CN2C3CC2CN(c2cnc(-c4cc(OCCN5CC6CCC5C6)cn5ncc(C#N)c45)cn2)C3)cn1` (stereo not drawn) [Compound 38, 6-(2-(2-azabicyclo[2.2.1]hept-2-yl)ethoxy)-4-(5-(6-((6-methoxypyridine-3-yl)methyl)-3,6-diazabicyclo[3.1.1]heptan-3-yl)pyrazin-2-yl)pyrazolo[1,5-a]pyridine-3-carbonitrile]: the values for the IC50 at VEGFR2 kinase and on Wild-type RET kinase were 666 nM and 3.22 nM, respectively. Further, on Ba/F3-KIF5B-RET cell, the GI50 was found to be 37.3 nM.

Consider `COc1ccc(CN2C3CC2CN(c2cnc(-c4cc(OCC(C)(C)C#N)cn5ncc(C#N)c45)cn2)C3)cn1` [Compound 39, 6-(2-cyano-2-methylpropoxy)-4-(5-(6-((6-methoxypyridin-3-yl)methyl)-3,6-diazabicyclo[3.1.1]heptan-3-yl)pyrazinpyridin-2-yl)pyrazolo[1,5-a]pyridine-3-carbonitrile], for which the IC50 is 259 nM against VEGFR2 kinase and 1.25 nM at Wild-type RET kinase. Moreover, the GI50 at Ba/F3-KIF5B-RET cell worked out at 15.6 nM.

Consider `COc1ccc(CN2C3CC2CN(c2cnc(-c4cc(OCC5C[C@H]6CC[C@@H](C5)N6)cn5ncc(C#N)c45)cn2)C3)cn1` (stereo partly drawn) [Compound 40, 6-(((1R, 5S)-8-azabicyclo[3.2.1]oct-3-yl)methoxy)-4-(5-(6-((6-methoxypyridine-3-yl)methyl)-3,6diazabicyclo[3.1.1]heptan-3-yl)pyrazin-2-yl)pyrazolo[1,5-a]pyridine-3-carbonitrile], for which the IC50 turned out to be 112 nM against VEGFR2 kinase and 0.86 nM at Wild-type RET kinase. Moreover, on Ba/F3-KIF5B-RET cell, the GI50 was 208 nM.

As for `CNc1cc(-c2ccc(N3CC4CC(C3)N4Cc3ccc(OC)nc3)nc2)c2c(C#N)cnn2c1` [Compound 47, 4-(6-(6-((6-methoxypyridin-3-yl)methyl)-3,6-diazabicyclo[3.1.1]heptyl-3-yl)pyridin-3-yl)-6-(methylamino)pyrazolo[1,5-a]pyridine-3-carbonitrile], the IC50 at RET G810S kinase was found to be 1.23 nM; against VEGFR2 kinase, 33.7 nM; against RET G810R kinase, 8.93 nM; at Wild-type RET kinase, 0.04 nM. For the same molecule, on RET G810S kinase, the “inhibitory activity against G810S (in words)” value was “good inhibitory activity”. In addition, the “inhibitory activity against G810R (in words)” value against RET G810R kinase was “good inhibitory activity”. Besides, at Ba/F3-KIF5B-RET cell, the GI50 is 1.42 nM.

Turning to `COc1ccc(CN2C3CC2CN(c2ccc(-c4cc(Br)cn5ncc(C#N)c45)cn2)C3)cn1` [Compound 48], the IC50 against RET G810S kinase came out at 13 nM; against VEGFR2 kinase, 875 nM; at RET G810R kinase, 63.2 nM; at Wild-type RET kinase it was 2.89 nM. The “inhibitory activity against G810S (in words)” value on RET G810S kinase is “good inhibitory activity”. Further, the “inhibitory activity against G810R (in words)” value at RET G810R kinase is listed as “good inhibitory activity”. The GI50 at Ba/F3-KIF5B-RET cell came out at 105 nM.

Turning to `COc1ccc(CN2C3CC2CN(c2ccc(-c4cc(NCCF)cn5ncc(C#N)c45)cn2)C3)cn1` [Compound 49, 6-((2-fluoroethyl)amino)-4-(6-(6-((6-methoxypyridin-3-yl)methyl)-3,6-diazabicyclo[3.1.1]hept-3-yl)pyridin-3-yl)pyrazolo[1,5-a]pyridine-3-carbonitrile], the IC50 at RET G810S kinase was 0.53 nM; at VEGFR2 kinase it was 28.4 nM; against RET G810R kinase, 1.85 nM; on Wild-type RET kinase, 0.19 nM. Besides, on RET G810S kinase, the “inhibitory activity against G810S (in words)” value is “good inhibitory activity”. In addition, on RET G810R kinase, the “inhibitory activity against G810R (in words)” value is “good inhibitory activity”. Moreover, the GI50 at Ba/F3-KIF5B-RET cell was found to be 1.52 nM.

On to `COc1ccc(CN2C3CC2CN(c2ccc(-c4cc(NCC(F)F)cn5ncc(C#N)c45)cn2)C3)cn1` [Compound 50], for which the IC50 against RET G810S kinase came out at 1.35 nM; against VEGFR2 kinase, 59.3 nM; on RET G810R kinase, 5.65 nM; at Wild-type RET kinase, 0.13 nM. In addition, the “inhibitory activity against G810S (in words)” value against RET G810S kinase is “good inhibitory activity”. For the same molecule, the “inhibitory activity against G810R (in words)” value against RET G810R kinase was “good inhibitory activity”. Besides, the GI50 on Ba/F3-KIF5B-RET cell is 5.75 nM.

Consider `COc1ccc(CN2C3CC2CN(c2ccc(-c4cc(NCCO)cn5ncc(C#N)c45)cn2)C3)cn1` [Compound 51, 6-((2-hydroxyethyl)amino)-4-(6-(6-((6-methoxypyridin-3-yl)methyl)-3,6-diazabicyclo[3.1.1]hept-3-yl)pyridin-3-yl)pyrazolo[1,5-a]pyridine-3-carbonitrile], for which the IC50 at VEGFR2 kinase amounted to 19.3 nM; on Wild-type RET kinase, 0.22 nM.

With `COc1ccc(CN2C3CC2CN(c2ccc(-c4cc(N5CCCC5)cn5ncc(C#N)c45)cn2)C3)cn1` [Compound 55, 4-(6-(6-((6-methoxypyridin-3-yl)methyl)-3,6-diazabicyclo[3.1.1]heptyl-3-yl)pyridin-3-yl)-6-(pyrrolidin-1-yl)pyrazolo[1,5-a]pyridine-3-carbonitrile], the IC50 against VEGFR2 kinase was 8.48 nM; on Wild-type RET kinase, 0.49 nM. Moreover, at Ba/F3-KIF5B-RET cell, the GI50 stood at 6.77 nM.

`COc1ccc(CN2C3CC2CN(c2ccc(-c4cc(NCC(F)(F)F)cn5ncc(C#N)c45)cn2)C3)cn1` [Compound 56, 4-(6-(6-((6-methoxypyridin-3-yl)methyl)-3,6-diazabicyclo[3.1.1]heptan-3-yl)pyridin-3-yl)-6-((2,2,2-trifluoroethyl)amino)pyrazolo[1,5-a]pyridine-3-carbonitrile]: the IC50 at RET G810S kinase turned out to be 4.73 nM; against VEGFR2 kinase, 103 nM; on RET G810R kinase it was 19.3 nM; at Wild-type RET kinase, 0.2 nM. On RET G810S kinase, the “inhibitory activity against G810S (in words)” value is “good inhibitory activity”. At RET G810R kinase, the “inhibitory activity against G810R (in words)” value is recorded as “good inhibitory activity”. Besides, the GI50 at Ba/F3-KIF5B-RET cell was found to be 8.53 nM.

Take `CCCNc1cc(-c2ccc(N3CC4CC(C3)N4Cc3ccc(OC)nc3)nc2)c2c(C#N)cnn2c1` [Compound 57, 4-(6-(6-((6-methoxypyridin-3-yl)methyl)-3,6-diazabicyclo[3.1.1]heptan-3-yl)pyridin-3-yl)-6-(propylamino)pyrazolo[1,5-a]pyridine-3-carbonitrile]: the IC50 against RET G810S kinase is 2.33 nM; at VEGFR2 kinase, 31.3 nM; on RET G810R kinase, 10.6 nM; on Wild-type RET kinase, 0.32 nM. The “inhibitory activity against G810S (in words)” value against RET G810S kinase is recorded as “good inhibitory activity”. Moreover, the “inhibitory activity against G810R (in words)” value on RET G810R kinase was “good inhibitory activity”. The GI50 at Ba/F3-KIF5B-RET cell was 1.24 nM.

On to `COc1ccc(CN2C3CC2CN(c2ccc(-c4cc(NCC(=O)N(C)C)cn5ncc(C#N)c45)cn2)C3)cn1` [Compound 59, 2-((3-cyano-4-(6-(6-((6-methoxypyridin-3-yl)methyl)-3,6-diazabicyclo[3.1.1]heptan-3-yl)pyridin-3-yl)pyrazolo[1,5-a]pyridin-6-yl)amino)-N,N-dimethylacetamide], for which the IC50 turned out to be 93.8 nM against VEGFR2 kinase and 1.69 nM at Wild-type RET kinase. Besides, the GI50 on Ba/F3-KIF5B-RET cell amounted to 11.9 nM.

Consider `COc1ccc(CN2C3CC2CN(c2ccc(-c4cc(N(C)CCN(C)C)cn5ncc(C#N)c45)cn2)C3)cn1` [Compound 61], for which the IC50 against VEGFR2 kinase amounted to 482 nM; on Wild-type RET kinase, 1.1 nM. On Ba/F3-KIF5B-RET cell, the GI50 came out at 60.4 nM.
